“Also recorded” adds a separate entry of the source.
What was measured:
mushroom tyrosinase [1] = biological target: T1, mushroom tyrosinase (Agaricus bisporus, UniProt C7FF04); experiment: Mushroom tyrosinase enzyme inhibition assay (dopachrome absorbance at 475 nm); assay type: biochemical; conditions: for inhibition of mushroom tyrosinase (in words): enzyme assay with 0.01% Triton X-100; for LE, ligand efficiency: −1.37 × (Log10Ki)/HA, HA = number of heavy atoms
Protocol: (§1) Enzyme activity and kinetics experiments with inhibitors—All of the reagents used in this study were purchased from ChemBridge (San Diego, CA, USA), Sigma-Aldrich (St. Louis, MO, USA), or Tokyo Chemical Industry (Tokyo, Japan). The reaction solution for the enzyme assay was prepared with 200 nM mushroom tyrosinase and inhibitors in phosphate-buffered saline (PBS), containing 5% dimethyl sulphoxide and 0.01% (w/v) Triton X-100. After incubating the mixture at 30 °C for 10 min, 500 μM L-tyrosine was added as the substrate. […] The IC50 was evaluated by analysing different concentrations of each inhibitor. The inhibitory constants (Ki) were converted from the IC50 values using the Km obtained from kinetics experiments and substrate concentration based on the Cheng–Prusoff equation [60]. A series of substrates at concentrations of 0.25, 0.33, 0.4, 0.5, 0.67, and 1 mM were used to obtain the respective velocities (V) for enzyme inhibitory kinetics. The concentrations of each inhibitor were varied and comprised the range that included the IC50 value. Four models (competitive, uncompetitive, non-competitive, and mixed) that were derived from the Michaelis-Menten equation were used to fit the kinetic parameters, maximum velocity (Vmax), Michaelis constant (Km), and the dissociation constants between the substrate-free enzyme and inhibitor (Kic) and the substrate-bound enzyme and inhibitor (Kiu). The data from all the concentrations of the substrate and inhibitor were simultaneously fitted nonlinearly by minimising the χ^2 value, defined as the sum of the squared deviations between experimental and fitted values for each model. The appropriate model was selected based on the F-test with χ^2 values from the four models, coupled with the extraction of the related parameters. All of the fittings and statistical analyses in this study were computed by using MATLAB® (MathWorks, Natick, MA, USA).
Target sequence in this assay (C7FF04 1-392): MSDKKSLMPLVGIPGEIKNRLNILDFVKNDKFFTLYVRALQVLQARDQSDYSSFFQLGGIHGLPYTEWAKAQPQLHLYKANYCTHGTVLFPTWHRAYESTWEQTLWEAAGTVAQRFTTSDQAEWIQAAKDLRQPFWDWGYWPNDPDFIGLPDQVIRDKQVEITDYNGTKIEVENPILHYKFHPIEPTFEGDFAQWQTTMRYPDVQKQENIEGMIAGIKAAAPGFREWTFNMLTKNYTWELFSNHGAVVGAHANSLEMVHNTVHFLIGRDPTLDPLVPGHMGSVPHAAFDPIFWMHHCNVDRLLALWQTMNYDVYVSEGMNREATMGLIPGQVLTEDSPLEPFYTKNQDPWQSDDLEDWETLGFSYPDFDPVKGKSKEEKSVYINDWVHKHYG

[2] = parameters: method as in PMID 22587354, PMID 18551414, PMID 15667143; conditions: extracted from the ZINC database ref 33,34,35; cited from earlier work
[3] = tested on: B16F10 murine melanoma cells; experiment: Melanin content assay in B16F10 cells; assay type: cell-based; conditions: 10, 20 and 50 μM tested, 48 h
Protocol: (§2) Cell-based activity assays with inhibitors—The melanin content and MTT conversion were measured in B16F10 murine melanoma cells that were purchased from the Korean Cell Line Bank (Seoul, Korea). When the density of B16F10 cells reached 1 × 10^5 cells, the test inhibitors (10, 20, and 50 μM) and 3-isobutyl-1-methylxanthine (IBMX, 100 μM) were added, and the cells were incubated for 48 h. The amount of melanin released into the extracellular area was quantified by measuring the absorbance at 405 nm, and was subsequently expressed as a percentage relative to the untreated control. The change in the reduction of the MTT dye into formazan in the cell was quantitatively interpreted as the cellular toxicity induced by the inhibitor. The inhibition of tyrosinase was also estimated using the B16F10 cell lysates, as described previously [28]. In brief, the cells were lysed in PBS supplemented with 1% (w/v) Triton X-100, centrifuged at 14,000 g for 30 min, and then the supernatants were dialysed to remove Triton X-100. After adding 500 μM L-DOPA and the inhibitors (10, 20, and 50 μM) to the prepared lysates, the change in absorbance over time at 475 nm was measured. The decrease in absorbance was calculated relative to the absorbance of the untreated controls.

melanin contents = tested on: melanin contents; parameters: method as in PMID 23123645, PMID 23411395, PMID 22901670; conditions: higher concentrations (>100 μM) ref 44,45,46; cited from earlier work
mammalian tyrosinase = biological target: T2, mammalian tyrosinase (Mus musculus, UniProt P11344); experiment: Tyrosinase inhibition in B16F10 cell lysates (L-DOPA substrate); assay type: biochemical, murine; conditions: 10, 20, 50 μM inhibitor, 500 μM L-DOPA
T2 construct: we performed an enzymatic assay with melanoma B16F10 cell lysates; endogenous in cells; host or cells: B16F10 murine melanoma cells (Korean Cell Line Bank), Triton X-100 lysate, dialysed supernatant
T2 sequence (P11344 19-533): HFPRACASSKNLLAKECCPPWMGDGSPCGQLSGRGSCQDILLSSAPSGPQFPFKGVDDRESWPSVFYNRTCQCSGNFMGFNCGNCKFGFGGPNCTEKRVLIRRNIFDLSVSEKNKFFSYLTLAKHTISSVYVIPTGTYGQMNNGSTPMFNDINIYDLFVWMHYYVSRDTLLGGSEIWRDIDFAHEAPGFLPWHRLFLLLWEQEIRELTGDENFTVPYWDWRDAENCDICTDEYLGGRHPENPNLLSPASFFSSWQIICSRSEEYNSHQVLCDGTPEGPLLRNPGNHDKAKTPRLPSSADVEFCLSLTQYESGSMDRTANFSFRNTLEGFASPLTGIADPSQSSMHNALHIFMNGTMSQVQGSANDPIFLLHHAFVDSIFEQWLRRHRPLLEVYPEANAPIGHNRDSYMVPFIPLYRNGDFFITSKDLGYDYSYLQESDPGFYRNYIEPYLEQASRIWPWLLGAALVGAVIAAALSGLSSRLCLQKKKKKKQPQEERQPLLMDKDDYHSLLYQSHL
Protocol: as §2

mushroom tyrosinase [4] = biological target: T1, mushroom tyrosinase; experiment: Enzyme inhibitory kinetics with nonlinear fitting of Michaelis-Menten models; assay type: biochemical; conditions: for Mechanism of inhibition: model chosen by χ2 and F-test among competitive, uncompetitive, non-competitive, mixed; for Ki: nonlinear data fitting, competitive model, read-out: kinetically fitted Ki
Protocol: as §1
Target sequence in this assay (C7FF04 1-392): as the sequence (C7FF04 1-392) above

human hepatocytes = conditions: up to several tens of μM ref 43; cited from earlier work
mushroom tyrosinase [5] = biological target: T1, mushroom tyrosinase; experiment: Differential scanning fluorimetry (DSF); assay type: binding; conditions: 0.5 μM protein, 200 μM inhibitor, control without inhibitor 51.8 °C
Protocol: DSF—The stability of mushroom tyrosinase in the presence and absence of inhibitors was assessed using DSF using a […] (RT-PCR) CFX96 system (BioRad, Hercules, CA, USA). […] The Tm value, which is the mid-point melting temperature, was calculated from a nonlinear fit of the temperature-dependent fluorescent intensity I(T), expressed as the Boltzmann equation: I(T)=LL+UL−LL/1+exp(Tm−T/a), where UL and LL are related to the baseline and top of the curves, respectively, and a is the steepness of the slope. Only data in the range of 35–65 °C were used for the fitting.
Target sequence in this assay (C7FF04 1-392 limits assumed): as the sequence (C7FF04 1-392) above

tyrosinase = conditions: cited from earlier work; for reported inhibition of tyrosinase through direct binding: literature survey ref 36,37

Compound: NC(CC(=O)O)C(=O)O (racemic) [D,L-aspartic acid]
- inhibition of mushroom tyrosinase (in words) (mushroom tyrosinase [1]): only thioguanine exerted inhibitory action

Compound: Cn1cnc([N+](=O)[O-])c1Sc1ncnc2nc[nH]c12 [Azathioprine, azathioprine]
- Ki (mushroom tyrosinase [1]): > 1000 µM
- inhibition of mushroom tyrosinase (in words) (mushroom tyrosinase [1]): but not azathioprine, exerted an inhibitory activity; also recorded: poor inhibitor
- LogP [2]: 1.15

Compound: Nc1nc2nc[nH]c2c(=O)[nH]1 [Guanine, guanine]
- Ki (mushroom tyrosinase [1]): > 1000 µM
- inhibition of mushroom tyrosinase (in words) (mushroom tyrosinase [1]): only thioinosine inhibited tyrosinase
- LogP [2]: −0.77

Compound: O=c1[nH]cnc2nc[nH]c12 [Hypoxanthine, hypoxanthine]
- Ki (mushroom tyrosinase [1]): > 1000 µM
- inhibition of mushroom tyrosinase (in words) (mushroom tyrosinase [1]): only thioinosine inhibited tyrosinase
- LogP [2]: −0.35

Compound: O=c1cc(CO)occ1O [Kojic acid, kojic acid]
- reduction of melanin content (in words) [3]: marginal
- decrease of melanin contents (melanin contents): meaningful decreases
- LogP [2]: −0.16

Compound: Sc1ncnc2nc[nH]c12 [Mercaptopurine, mercaptopurine]
- Ki (mushroom tyrosinase [1]; read-out: Ki): 16 µM
- LE, ligand efficiency (mushroom tyrosinase [1]): 0.61
- inhibition of tyrosinase in B16F10 cell lysates (in words) (mammalian tyrosinase): highest inhibition
- inhibition of tyrosinase in B16F10 cell lysates (in words) (mammalian tyrosinase; listed as mercaptopurine): inhibited melanin syntheses in a concentration-dependent manner
- Mechanism of inhibition (mushroom tyrosinase [4]): Competitive
- Mechanism of inhibition (mushroom tyrosinase [4]; listed as mercaptopurine): competitive inhibitors
- Ki (mushroom tyrosinase [4]): 29 µM
- cytotoxicity in human hepatocytes (human hepatocytes): less cytotoxic up to several tens of μM
- reduction of melanin content (in words) [3]: less effective
- Tm of tyrosinase in complex with inhibitor (mushroom tyrosinase [5]): 49.0 ± 0.2 °C
- Tm of tyrosinase in complex with inhibitor (mushroom tyrosinase [5]; listed as mercaptopurine): 49.0 °C
- LogP [2]: 1.00

Compound: N[C@@H](CSCC(=O)O)C(=O)O [S-carboxymethyl-L-cysteine]
- inhibition of mushroom tyrosinase (in words) (mushroom tyrosinase [1]): only thioguanine exerted inhibitory action

Compound: Nc1nc2nc[nH]c2c(=S)[nH]1 [Thioguanine, thioguanine]
- inhibition of mushroom tyrosinase (in words) (mushroom tyrosinase [1]): only thioguanine exerted inhibitory action
- Ki (mushroom tyrosinase [1]; read-out: Ki): 52 µM
- inhibition of tyrosinase in B16F10 cell lysates (in words) (mammalian tyrosinase): inhibited melanin syntheses in a concentration-dependent manner
- Mechanism of inhibition (mushroom tyrosinase [4]): Competitive
- Mechanism of inhibition (mushroom tyrosinase [4]; listed as thioguanine): competitive inhibitors
- Ki (mushroom tyrosinase [4]): 40 µM
- reduction of melanin content (in words) [3]: markedly reduced the melanin content at 20 and 50 μM
- Tm of tyrosinase in complex with inhibitor (mushroom tyrosinase [5]): 49.8 ± 0.2 °C
- Tm of tyrosinase in complex with inhibitor (mushroom tyrosinase [5]; listed as thioguanine): 49.8 °C
- LogP [2]: 0.60

Compound: OC[C@H]1O[C@@H](n2cnc3c(S)ncnc32)[C@H](O)[C@@H]1O [Thioinosine, thioinosine]
- Ki (mushroom tyrosinase [1]; read-out: Ki): 8 µM
- LE, ligand efficiency (mushroom tyrosinase [1]): 0.34
- inhibition of tyrosinase in B16F10 cell lysates (in words) (mammalian tyrosinase): inhibited melanin syntheses in a concentration-dependent manner
- Mechanism of inhibition (mushroom tyrosinase [4]): Competitive
- Mechanism of inhibition (mushroom tyrosinase [4]; listed as thioinosine): competitive inhibitors
- Ki (mushroom tyrosinase [4]): 14 µM
- reduction of melanin content (in words) [3]: markedly reduced the melanin content at 20 and 50 μM
- Tm of tyrosinase in complex with inhibitor (mushroom tyrosinase [5]): 51.0 ± 0.2 °C
- Tm of tyrosinase in complex with inhibitor (mushroom tyrosinase [5]; listed as thioinosine): 51.0 °C
- LogP [2]: −0.90

Compound: Nn1c(S)nnc1-c1ccncc1 [ZINC509439, 4-amino-5-(4-pyridyl)-4H-1,2,4-triazole-3-thiol]
- Ki (tyrosinase; BindingDB entry ref 48, read-out: reported Ki): 1 µM

Compound: O=Cc1ccc(O[C@@H]2O[C@H](CO)[C@@H](O)[C@@H](O)[C@H]2O)cc1 [ZINC5234422, 4-(β-D-allopyranosyloxy)benzaldehyde]
- IC50 (tyrosinase; BindingDB entry ref 48, read-out: half-maximal inhibitory concentration (IC50)): 94 µM

Compound: Nc1ccc(C(=O)NCC(=O)O)cc1 [aminohippuric acid]
- reported inhibition of tyrosinase through direct binding (tyrosinase): has been reported

Compound: O=C(O)c1cc(-c2ccc(F)cc2F)ccc1O [diflunisal]
- reported inhibition of tyrosinase through direct binding (tyrosinase): has been reported

Compound: O=C(O)c1cccnc1Nc1cccc(C(F)(F)F)c1 [nifumic acid]
- inhibition of mushroom tyrosinase (in words) (mushroom tyrosinase [1]): only thioguanine exerted inhibitory action

Compound: CCCN(CCC)S(=O)(=O)c1ccc(C(=O)O)cc1 [probenecid]
- inhibition of mushroom tyrosinase (in words) (mushroom tyrosinase [1]): only thioguanine exerted inhibitory action

Compound: COc1ccc(/C=C/C(=O)Nc2ccccc2C(=O)O)cc1OC [tranilast]
- inhibition of mushroom tyrosinase (in words) (mushroom tyrosinase [1]): only thioguanine exerted inhibitory action
